Measurements published in ChEMBL document CHEMBL1201862, “PubChem BioAssay data set” (2004).
Calls of active or inactive are those of the source.

Experiments:
[1] = biological target: Cytochrome P450 3A4 (Homo sapiens, UniProt P08684);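 note: CYP3A4 tested as one member of a cytochrome P450 panel screen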
[2] = biological target: Cytochrome P450 2C19 (Homo sapiens, UniProt P33261); test: Cytochrome panel assay with activity outcomes. Panel member name: p450-cyp2c19 Compounds with AC50 equal or less than 10 uM are considered active; assay type: functional; conditions: read-out: AC50
Chain of Cytochrome P450 2C19 (P33261 whole entry): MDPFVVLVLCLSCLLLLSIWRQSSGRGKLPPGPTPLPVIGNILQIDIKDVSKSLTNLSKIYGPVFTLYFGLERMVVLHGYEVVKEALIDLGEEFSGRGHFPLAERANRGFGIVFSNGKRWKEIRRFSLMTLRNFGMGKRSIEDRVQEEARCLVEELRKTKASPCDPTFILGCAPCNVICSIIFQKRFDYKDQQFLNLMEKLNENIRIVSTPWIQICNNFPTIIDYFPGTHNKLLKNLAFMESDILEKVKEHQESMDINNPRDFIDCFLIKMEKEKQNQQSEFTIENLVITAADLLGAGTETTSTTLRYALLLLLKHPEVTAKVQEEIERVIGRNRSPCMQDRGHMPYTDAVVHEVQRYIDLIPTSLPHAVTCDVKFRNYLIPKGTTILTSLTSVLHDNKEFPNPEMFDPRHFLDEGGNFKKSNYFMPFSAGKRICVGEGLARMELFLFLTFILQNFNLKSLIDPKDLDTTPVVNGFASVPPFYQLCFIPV

[3] = biological target: Cytochrome P450 2C9 (Homo sapiens, UniProt P11712)
[4] = biological target: Paired box protein Pax-8 (Homo sapiens, UniProt Q06710); test: inhibitors of PAX8-driven TPO luciferase reporter, dose response, RMG-I cells, cherry-pick (AID 687027); assay type: functional, cell-based;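 note: luciferase reporter driven by Pax8 target thyroperoxidase promoter measured by SteadyGlo luminescence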
Chain of Paired box protein Pax-8 (Q06710 whole entry): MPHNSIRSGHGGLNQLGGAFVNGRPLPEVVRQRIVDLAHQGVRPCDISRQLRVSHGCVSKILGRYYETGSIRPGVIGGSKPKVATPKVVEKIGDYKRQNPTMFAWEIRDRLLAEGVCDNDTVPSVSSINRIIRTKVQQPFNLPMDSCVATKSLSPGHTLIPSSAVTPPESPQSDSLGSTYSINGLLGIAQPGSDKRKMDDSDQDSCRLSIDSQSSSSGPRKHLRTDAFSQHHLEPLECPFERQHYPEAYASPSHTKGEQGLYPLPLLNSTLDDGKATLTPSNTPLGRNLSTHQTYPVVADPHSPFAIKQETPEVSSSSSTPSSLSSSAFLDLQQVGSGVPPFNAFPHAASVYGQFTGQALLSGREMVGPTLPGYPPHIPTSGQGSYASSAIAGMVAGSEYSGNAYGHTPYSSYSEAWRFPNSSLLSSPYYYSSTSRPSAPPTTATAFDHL

[5] = cytotoxicity in OVCAR8 ovarian cancer cells, dose response, PAX8 project, cell-based, plate reader, dry powder samples (AID 743197); assay type: functional; conditions: OVCAR-8
[6] = biological target: Estrogen receptor beta (Homo sapiens, UniProt Q92731);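 note: recombinant ER-beta bound to coactivator SRC1 peptide in presence of estradiol agonist; inhibitors block coactivator peptide binding and lower the FRET signal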
Chain of Estrogen receptor beta (Q92731 whole entry): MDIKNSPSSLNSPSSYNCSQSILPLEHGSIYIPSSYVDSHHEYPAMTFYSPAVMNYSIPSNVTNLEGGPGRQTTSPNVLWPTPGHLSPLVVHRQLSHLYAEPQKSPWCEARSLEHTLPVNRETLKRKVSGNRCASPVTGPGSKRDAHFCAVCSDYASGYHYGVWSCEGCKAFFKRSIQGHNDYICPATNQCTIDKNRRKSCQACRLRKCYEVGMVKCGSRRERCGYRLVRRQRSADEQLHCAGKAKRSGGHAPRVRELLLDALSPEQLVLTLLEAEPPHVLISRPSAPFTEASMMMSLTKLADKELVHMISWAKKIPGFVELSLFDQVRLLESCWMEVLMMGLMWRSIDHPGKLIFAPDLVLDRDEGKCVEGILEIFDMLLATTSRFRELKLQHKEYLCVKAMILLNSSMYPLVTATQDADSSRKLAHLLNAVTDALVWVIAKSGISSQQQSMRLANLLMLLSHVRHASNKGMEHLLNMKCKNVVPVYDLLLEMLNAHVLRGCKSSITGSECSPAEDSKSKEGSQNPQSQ

[7] = system: H9c2; test: cells; assay type: functional, cell-based; conditions: Rattus norvegicus, H9c2, Myocardium;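 note: confirmatory concentration-response retest of ultra-high-throughput screening hits for modulation of myocardial damage; cell death induced by hydrogen peroxide oxidative stress; compound pretreatment for 60 min then peroxide exposure for 2 h; potency is for protecting the cells against peroxide damage rather than for killing them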
[8] = cells; assay type: functional
[9] = growth suppression of beta-catenin-knockout colon cells, dose response, cell-based, HCT116, human colon tumor (AID 1045); assay type: functional;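 note: HCT116 colon tumor cells with beta catenin knocked out; cells exposed to compound for 60 hours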
[10] = growth suppression of PTEN-null colon cells, dose response, cell-based, HCT116 PTEN knockout (AID 1047); assay type: functional;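 note: HCT116 colon tumor cells with PTEN knocked out; cells exposed to compound for 60 hours before readout; potency for loss of cell viability measured by luminescence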
[11] = Luminescence Cell-Based Dose Confirmation HTS to Identify Inhibitors of Platelet Dense Granule Release. [Related pubchem assays: 1663 (Primary HTS), 1678 (Summary of Project)]; assay type: functional
[12] = biological target: Luciferin 4-monooxygenase (Photinus pyralis, UniProt P08659); test: firefly luciferase enzyme inhibitors, dose response, biochemical, luminescence (AID 1891)
[13] = biological target: T1, Fatty acid synthase (Homo sapiens, UniProt P49327); test: FAS thioesterase domain inhibitors, dose response, biochemical, kinetic fluorescence intensity (AID 624326); assay type: functional;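 note: rate of fluorescence rise from hydrolysis of a fluorogenic O-methyl fluorescein ester substrate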
T1 sequence (P49327 whole entry, the tested form may be a part): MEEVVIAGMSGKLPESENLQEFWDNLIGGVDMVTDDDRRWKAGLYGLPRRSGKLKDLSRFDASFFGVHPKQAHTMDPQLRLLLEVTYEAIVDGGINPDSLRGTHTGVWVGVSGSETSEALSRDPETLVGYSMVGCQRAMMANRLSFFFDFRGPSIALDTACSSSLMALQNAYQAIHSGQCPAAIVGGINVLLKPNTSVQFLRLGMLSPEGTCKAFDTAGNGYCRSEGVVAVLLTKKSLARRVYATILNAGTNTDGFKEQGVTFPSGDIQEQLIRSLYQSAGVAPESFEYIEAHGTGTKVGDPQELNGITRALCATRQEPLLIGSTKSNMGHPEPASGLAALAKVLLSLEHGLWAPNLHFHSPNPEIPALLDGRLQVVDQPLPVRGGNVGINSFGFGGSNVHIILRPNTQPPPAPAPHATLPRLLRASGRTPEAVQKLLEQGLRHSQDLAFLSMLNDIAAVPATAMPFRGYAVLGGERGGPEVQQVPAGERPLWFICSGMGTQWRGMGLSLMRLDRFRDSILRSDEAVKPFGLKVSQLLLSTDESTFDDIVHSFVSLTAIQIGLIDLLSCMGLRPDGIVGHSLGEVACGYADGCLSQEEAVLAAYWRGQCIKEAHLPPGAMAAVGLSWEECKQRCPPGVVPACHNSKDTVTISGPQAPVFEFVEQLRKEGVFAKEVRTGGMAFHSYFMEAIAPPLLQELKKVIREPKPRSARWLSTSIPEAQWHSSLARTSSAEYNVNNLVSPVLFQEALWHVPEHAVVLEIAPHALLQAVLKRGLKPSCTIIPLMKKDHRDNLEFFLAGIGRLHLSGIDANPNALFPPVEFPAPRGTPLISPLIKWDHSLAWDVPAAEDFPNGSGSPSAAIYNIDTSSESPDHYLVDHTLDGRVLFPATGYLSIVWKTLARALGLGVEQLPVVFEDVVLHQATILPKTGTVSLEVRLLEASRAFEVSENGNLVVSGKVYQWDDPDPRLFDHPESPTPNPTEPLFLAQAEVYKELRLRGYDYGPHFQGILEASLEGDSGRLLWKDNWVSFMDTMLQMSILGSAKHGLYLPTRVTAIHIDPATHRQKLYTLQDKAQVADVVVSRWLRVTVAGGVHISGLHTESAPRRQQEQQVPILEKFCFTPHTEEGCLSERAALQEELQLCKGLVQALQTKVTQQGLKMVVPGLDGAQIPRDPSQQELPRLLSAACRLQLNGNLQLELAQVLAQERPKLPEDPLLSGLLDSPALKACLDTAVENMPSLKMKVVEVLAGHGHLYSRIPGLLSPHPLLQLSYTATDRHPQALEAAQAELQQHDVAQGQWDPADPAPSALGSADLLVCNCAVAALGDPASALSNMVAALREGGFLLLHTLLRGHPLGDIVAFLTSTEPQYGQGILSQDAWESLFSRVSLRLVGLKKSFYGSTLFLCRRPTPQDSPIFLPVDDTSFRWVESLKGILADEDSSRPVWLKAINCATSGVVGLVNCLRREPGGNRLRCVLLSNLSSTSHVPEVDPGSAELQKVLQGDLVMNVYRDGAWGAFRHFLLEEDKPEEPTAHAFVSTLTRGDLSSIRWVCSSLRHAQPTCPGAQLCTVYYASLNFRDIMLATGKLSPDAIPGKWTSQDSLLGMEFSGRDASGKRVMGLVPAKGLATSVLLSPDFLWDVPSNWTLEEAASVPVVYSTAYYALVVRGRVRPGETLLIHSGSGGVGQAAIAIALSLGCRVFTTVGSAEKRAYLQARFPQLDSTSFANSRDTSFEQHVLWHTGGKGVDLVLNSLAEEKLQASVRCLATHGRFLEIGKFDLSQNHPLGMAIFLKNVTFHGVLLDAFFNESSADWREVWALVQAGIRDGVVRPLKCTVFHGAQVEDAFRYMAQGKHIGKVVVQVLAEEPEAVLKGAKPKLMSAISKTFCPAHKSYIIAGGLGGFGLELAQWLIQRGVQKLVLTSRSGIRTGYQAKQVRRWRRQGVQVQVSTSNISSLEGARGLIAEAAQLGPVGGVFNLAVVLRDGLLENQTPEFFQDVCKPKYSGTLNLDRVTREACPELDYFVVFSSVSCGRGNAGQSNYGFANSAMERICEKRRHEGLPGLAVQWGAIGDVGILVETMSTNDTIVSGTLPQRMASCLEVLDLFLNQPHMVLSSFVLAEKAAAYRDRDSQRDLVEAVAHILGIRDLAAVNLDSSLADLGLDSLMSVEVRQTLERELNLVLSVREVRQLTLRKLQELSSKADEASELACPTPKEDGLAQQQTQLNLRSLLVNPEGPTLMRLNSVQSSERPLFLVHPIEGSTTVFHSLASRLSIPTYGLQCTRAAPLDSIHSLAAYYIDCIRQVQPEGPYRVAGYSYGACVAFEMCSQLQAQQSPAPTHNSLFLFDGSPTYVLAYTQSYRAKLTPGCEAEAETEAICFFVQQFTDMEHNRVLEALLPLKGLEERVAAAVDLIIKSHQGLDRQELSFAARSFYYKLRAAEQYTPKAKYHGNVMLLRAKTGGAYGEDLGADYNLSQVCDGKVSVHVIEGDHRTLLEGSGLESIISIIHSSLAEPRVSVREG

[14] = biological target: T1, Fatty acid synthase; test: FAS thioesterase domain inhibitors, dose response, biochemical, endpoint fluorescence intensity, uHTS hits (AID 624327); assay type: functional;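 note: fluorescence from hydrolysis of an O-methyl fluorescein acyl ester substrate by the enzyme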
[15] = biological target: T2, Corticotropin-releasing factor receptor 2/Corticotropin-releasing factor-binding protein (Homo sapiens, UniProt P24387+Q13324); test: activators of CRF receptor 2 with binding protein – uHTS hits, confirmation (AID 602473); assay type: functional; conditions: read-out: EC50_Mean
T2 sequence (Q13324 whole entry): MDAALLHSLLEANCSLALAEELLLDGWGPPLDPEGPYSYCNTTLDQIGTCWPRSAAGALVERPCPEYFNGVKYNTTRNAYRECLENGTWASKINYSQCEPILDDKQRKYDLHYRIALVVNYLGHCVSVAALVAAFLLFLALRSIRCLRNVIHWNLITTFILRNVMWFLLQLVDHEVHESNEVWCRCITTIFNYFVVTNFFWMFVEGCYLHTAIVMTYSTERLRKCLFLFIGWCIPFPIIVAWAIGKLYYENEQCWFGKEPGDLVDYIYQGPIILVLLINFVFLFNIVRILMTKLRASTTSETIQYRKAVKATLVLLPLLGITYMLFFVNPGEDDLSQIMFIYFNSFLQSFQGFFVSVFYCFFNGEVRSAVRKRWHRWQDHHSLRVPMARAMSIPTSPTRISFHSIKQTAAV
T2 sequence (P24387 whole entry): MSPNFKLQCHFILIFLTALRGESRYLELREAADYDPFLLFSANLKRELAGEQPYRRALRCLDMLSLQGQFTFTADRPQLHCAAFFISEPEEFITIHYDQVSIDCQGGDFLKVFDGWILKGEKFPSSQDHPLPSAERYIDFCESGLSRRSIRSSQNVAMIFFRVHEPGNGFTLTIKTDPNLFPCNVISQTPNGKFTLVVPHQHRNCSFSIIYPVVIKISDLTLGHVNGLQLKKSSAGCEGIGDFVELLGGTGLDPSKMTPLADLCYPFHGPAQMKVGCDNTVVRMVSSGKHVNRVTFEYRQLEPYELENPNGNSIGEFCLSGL

[16] = biological target: 26S proteasome non-ATPase regulatory subunit 14 (Homo sapiens, UniProt O00487); test: inhibition of proteasome subunit RPN11 – biochemical, fluorescence polarization, uHTS hits, confirmation (AID 602368); assay type: functional
Chain of 26S proteasome non-ATPase regulatory subunit 14 (O00487 whole entry): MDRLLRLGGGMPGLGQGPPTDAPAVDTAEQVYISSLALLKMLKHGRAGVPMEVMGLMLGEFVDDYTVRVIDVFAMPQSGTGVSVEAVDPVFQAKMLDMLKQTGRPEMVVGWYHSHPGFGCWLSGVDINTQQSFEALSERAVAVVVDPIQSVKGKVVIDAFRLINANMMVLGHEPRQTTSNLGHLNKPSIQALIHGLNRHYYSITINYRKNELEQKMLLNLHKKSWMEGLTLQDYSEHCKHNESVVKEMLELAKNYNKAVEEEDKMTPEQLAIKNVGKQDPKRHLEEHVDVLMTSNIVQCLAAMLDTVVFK

[17] = biological target: Prothrombin (Bos taurus, UniProt P00735); test: thrombin inhibition, dose response, biochemical, fluorescence polarization, uHTS hits (AID 602369); assay type: functional
[18] = biological target: 72 kDa type IV collagenase (Homo sapiens, UniProt P08253); test: Dose Response validation of uHTS RPN11 inhibitor hits using a MMP-2 Fluorescence assay.; assay type: functional
[19] = biological target: T3, Zinc finger protein mex-5 (Caenorhabditis elegans, UniProt Q9XUB2); test: MEX-5/TCR-2 RNA interaction inhibitors, dose response, biochemical, C. elegans, fluorescence polarization (AID 1960)
T3 sequence (Q9XUB2 whole entry): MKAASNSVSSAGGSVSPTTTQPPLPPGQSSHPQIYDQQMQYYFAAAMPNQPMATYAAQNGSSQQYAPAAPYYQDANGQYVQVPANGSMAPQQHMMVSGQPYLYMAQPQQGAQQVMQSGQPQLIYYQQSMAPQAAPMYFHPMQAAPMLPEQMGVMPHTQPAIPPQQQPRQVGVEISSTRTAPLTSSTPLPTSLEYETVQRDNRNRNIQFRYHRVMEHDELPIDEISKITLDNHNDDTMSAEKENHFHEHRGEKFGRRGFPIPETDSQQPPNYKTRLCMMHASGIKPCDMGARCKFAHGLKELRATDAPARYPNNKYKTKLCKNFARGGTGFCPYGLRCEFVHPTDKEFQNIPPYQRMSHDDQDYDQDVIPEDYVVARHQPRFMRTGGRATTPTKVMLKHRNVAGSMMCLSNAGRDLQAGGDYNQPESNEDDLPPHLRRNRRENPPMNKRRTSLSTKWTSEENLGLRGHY

[20] = biological target: T4, RNA-binding protein pos-1 (Caenorhabditis elegans, UniProt G5EF15); test: inhibitors of POS-1/mex-3 RNA binding, dose response, biochemical, fluorescence polarization (AID 1964);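 note: purified POS-1 fused to maltose binding protein made in E. coli; potency of compounds blocking POS-1 binding to fluorescent RNA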
T4 sequence (G5EF15 whole entry): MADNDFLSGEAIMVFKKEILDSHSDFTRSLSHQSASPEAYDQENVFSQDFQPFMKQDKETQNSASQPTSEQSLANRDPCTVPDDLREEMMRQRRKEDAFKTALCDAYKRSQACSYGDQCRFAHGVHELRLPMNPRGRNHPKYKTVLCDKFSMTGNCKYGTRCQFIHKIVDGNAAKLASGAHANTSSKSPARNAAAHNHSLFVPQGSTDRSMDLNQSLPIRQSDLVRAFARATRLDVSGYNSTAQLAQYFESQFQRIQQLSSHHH

[21] = biological target: Eukaryotic translation initiation factor 4E (Mus musculus, UniProt P63073); test: eIF4E–eIF4G protein interaction inhibitors, dose response, biochemical, TR-FRET (AID 855); assay type: functional;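 note: potency for disrupting eIF4E binding to eIF4GI seen as loss of FRET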
Chain of Eukaryotic translation initiation factor 4E (P63073 whole entry): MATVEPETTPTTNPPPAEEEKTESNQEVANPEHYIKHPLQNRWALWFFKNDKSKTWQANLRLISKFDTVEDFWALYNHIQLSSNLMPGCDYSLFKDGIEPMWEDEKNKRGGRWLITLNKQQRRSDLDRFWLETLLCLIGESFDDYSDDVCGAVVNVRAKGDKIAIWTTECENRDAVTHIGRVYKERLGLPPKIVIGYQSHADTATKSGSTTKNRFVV

[22] = cytotoxicity toward NIH3T3 fibroblasts, dose response, counter-screen, cell-based, ATP luminescence, mouse fibroblasts (AID 2010); assay type: functional;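 note: cells exposed to compound for about 90 hours before reading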
[23] = inhibitors of intracellular T. cruzi replication, confirmation, NIH3T3 host cells, beta-gal luminescence (AID 2044); assay type: functional, cell-based;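 note: intracellular parasites grown in NIH/3T3 mouse fibroblasts as host cells; luminescent beta-galactosidase reporter signal from transgenic T. cruzi replicating inside host cells; inhibitors lower the luminescence signal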
[24] = biological target: DNA dC->dU-editing enzyme APOBEC-3G (Homo sapiens, UniProt Q9HC16); test: Dose Response confirmation of small molecule APOBEC3G DNA Deaminase Inhibitors via a fluorescence-based single-stranded DNA deaminase assay. [Related pubchem assays (depositor defined):AID493012, AID493028]; assay type: functional
[25] = biological target: T5, Cytochrome P450 1A2 (Homo sapiens, UniProt P05177);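 note: PubChem cytochrome P450 panel assay, CYP1A2 panel member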
T5 sequence (P05177 whole entry): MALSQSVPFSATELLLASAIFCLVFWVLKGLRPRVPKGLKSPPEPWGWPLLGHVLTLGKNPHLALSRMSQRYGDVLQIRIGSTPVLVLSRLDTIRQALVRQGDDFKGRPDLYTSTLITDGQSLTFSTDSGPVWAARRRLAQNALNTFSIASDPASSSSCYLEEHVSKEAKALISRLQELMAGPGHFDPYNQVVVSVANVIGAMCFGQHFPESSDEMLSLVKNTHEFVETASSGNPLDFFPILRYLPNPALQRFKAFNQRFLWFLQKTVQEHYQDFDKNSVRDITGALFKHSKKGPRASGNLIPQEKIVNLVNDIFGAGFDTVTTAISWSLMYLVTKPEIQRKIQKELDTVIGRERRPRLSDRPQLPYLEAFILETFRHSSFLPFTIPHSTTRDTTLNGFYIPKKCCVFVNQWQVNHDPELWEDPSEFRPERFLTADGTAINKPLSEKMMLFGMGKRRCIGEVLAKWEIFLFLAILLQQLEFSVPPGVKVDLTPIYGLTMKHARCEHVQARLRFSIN

Chain of Cytochrome P450 3A4 (P08684 whole entry): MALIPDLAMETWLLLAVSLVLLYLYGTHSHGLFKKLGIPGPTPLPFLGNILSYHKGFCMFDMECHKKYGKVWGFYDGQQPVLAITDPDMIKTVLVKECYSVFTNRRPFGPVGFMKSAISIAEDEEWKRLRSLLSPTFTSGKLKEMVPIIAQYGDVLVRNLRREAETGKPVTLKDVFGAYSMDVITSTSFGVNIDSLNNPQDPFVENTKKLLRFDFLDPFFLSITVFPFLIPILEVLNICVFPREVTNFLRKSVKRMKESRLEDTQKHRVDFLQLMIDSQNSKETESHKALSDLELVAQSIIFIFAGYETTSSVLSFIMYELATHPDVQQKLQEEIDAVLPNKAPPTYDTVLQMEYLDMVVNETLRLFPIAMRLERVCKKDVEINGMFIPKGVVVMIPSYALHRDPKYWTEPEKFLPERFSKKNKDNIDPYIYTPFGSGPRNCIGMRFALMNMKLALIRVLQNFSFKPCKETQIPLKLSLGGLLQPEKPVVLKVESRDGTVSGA

SMILES: CC(C)(C)c1ccc(C(=O)NC(Cc2ccccc2)C(=O)O)cc1 (centres undefined)
- AC50 [1]: inconclusive
- AC50 [2]: 22.4 µM (inconclusive)
- AC50 [3]: 25.1 µM (inconclusive)

SMILES: CCCC#Cc1ccc([C@H]2[C@H]3CN(S(=O)(=O)Cc4ccccc4)CCCCN3[C@H]2CO)cc1
- AC50 [4]: 10.9 µM (active)
- AC50 [5]: 60.2 µM (active)

SMILES: CCN1C2=C(C(=O)CCC2)C(c2ccc(O)c(Br)c2)C2=C1CCCC2=O
- IC50 [6]: > 50 µM (not active)

SMILES: O=C(c1ccco1)N1CCC2(CCN(Cc3nccs3)CC2)CC1
- AC50 [1]: inconclusive

SMILES: CN1c2ccc(-c3ccccc3)cc2[C@@H]2[C@@H](CCN2C(=O)NC2CCCCC2)[C@@H]1CO
- AC50 [4]: 11.1 µM (active)
- AC50 [5]: 49.6 µM (active)

SMILES: O=C(COC(=O)c1ccc([N+](=O)[O-])s1)Nc1ccc(Cl)cn1
- IC50 [7]: 22.2 µM (active)
- IC50 [8]: 8.49 µM (active)

SMILES: COC(=O)C1(C(F)(F)F)N=C2Sc3ccccc3N2C(N2CCOCC2)=N1 (centres undefined)
- EC50 [9]: 21.7 µM (active)
- EC50 [10]: 23.9 µM (active)
- EC50 [11]: > 112 µM (not active)
- EC50 [12]: > 112 µM (not active)

SMILES: O=C(O)CCCNc1c(C(=O)Nc2ccc(Cl)cc2)cc([N+](=O)[O-])cc1[N+](=O)[O-]
- IC50 [13]: 4.79 µM (active)
- IC50 [14]: 5.31 µM (active)

SMILES: Nc1ccc(/C=C/C(=O)c2ccco2)cc1
- EC50 [15]: 7.4 µM (active)
- IC50 [16]: 18 µM (active)
- IC50 [17]: 27.5 µM (active)
- IC50 [18]: > 100 µM (inactive)

SMILES: C[C@H](CO)N1C[C@H](C)[C@@H](CN(C)C(=O)NC2CCCCC2)Oc2c(NC(=O)Nc3ccc4c(c3)OCO4)cccc2C1=O
- IC50 [13]: 4.32 µM (active)
- IC50 [14]: 1.66 µM (active)

SMILES: COc1cc(CN2c3ccccc3C(=O)CS2(=O)=O)cc(OC)c1
- IC50 [16]: > 100 µM (inactive)
- IC50 [17]: > 100 µM (inactive)
- IC50 [18]: > 100 µM (inactive)

SMILES: O=C(c1ccco1)N1CCC2(CCN(Cc3ccccc3)CC2)CC1
- AC50 [1]: inconclusive

SMILES: Cc1ccc(-c2nc3cc(C(N)=O)ccc3c(O)c2O)cc1
- EC50 [19]: 8.44 µM (inconclusive)
- IC50 [7]: 11.3 µM (active)
- EC50 [20]: 7.27 µM (active)

SMILES: Oc1nc(CSc2nnc(-c3cccnc3)n2C2CCCCC2)nc2ccccc12
- IC50 [7]: 22.1 µM (active)

SMILES: CCOc1ccccc1C(=O)N1CCN=C1SC
- IC50 [6]: > 50 µM (not active)

SMILES: CCOC(=O)CNC(=O)C(Cc1ccccc1)NS(=O)(=O)c1ccc2c(c1)CCC(=O)N2 (centres undefined)
- IC50 [6]: > 50 µM (not active)

SMILES: O=C(Nc1cccc(F)c1)N1CCCCN2[C@@H](CO)[C@@H](c3ccc(-c4ccncc4)cc3)[C@@H]2C1
- AC50 [4]: 32.2 µM (active)
- AC50 [5]: > 70 µM (inactive)

SMILES: C=CCn1c(-c2cc(OC)c(OC)c(OC)c2)n[nH]c1=S
- IC50 [21]: > 64 µM (inactive)

SMILES: COCCNC(=O)CCCn1c(=O)c2ccccc2n(Cc2cccc([N+](=O)[O-])c2)c1=O
- IC50 [13]: 15.8 µM (active)
- IC50 [14]: 11.6 µM (active)

SMILES: O=C(O)CC(O)C(=O)O (centres undefined) [MALIC ACID]
- AC50 [1]: inconclusive

SMILES: O=S1(=O)CC/C(=N/Nc2ccc(C(F)(F)F)cn2)c2cc(F)ccc21
- IC50 [21]: 50 µM (inactive)

SMILES: O=CNc1cc(-c2ccc(C(=O)NC3CC3)cc2)cn2c(-c3ccc(F)c(Cl)c3)cnc12
- IC50 [7]: > 79 µM (inactive)

SMILES: COc1ccccc1NS(=O)(=O)c1cc(NC(=O)C2CCC2)ccc1N1CCCCC1
- EC50 [22]: > 30 µM (not active)
- EC50 [23]: 2.44 µM (active)
- IC50 [24]: 46.8 µM (active)

SMILES: CCOc1ccc(Cl)cc1CNCCNCC(C)O.Cl (centres undefined)
- AC50 [1]: inconclusive

SMILES: Cc1oc(-c2ccc(Cl)cc2)nc1CN1CCC(C(=O)N2CCc3ccccc3C2)CC1
- EC50 [9]: 14.7 µM (active)
- EC50 [10]: 16.5 µM (active)

SMILES: O=C(Nc1nc(-c2cc(Cl)sc2Cl)cs1)c1ccc(Br)s1
- EC50 [9]: 20.2 µM (active)
- EC50 [10]: 17.1 µM (active)

SMILES: Cc1ccc(C(=O)ON=C2CCN(S(=O)(=O)c3ccccc3)CC2)cc1
- AC50 [1]: inconclusive
- AC50 [2]: 5.01 µM (inconclusive)
- AC50 [25]: 28.2 µM (inconclusive)

SMILES: O=C(NCCCCc1ccccc1)C1CC(c2ccc([N+](=O)[O-])cc2)=NO1 (centres undefined)
- IC50 [13]: 14.1 µM (active)
- IC50 [14]: 13.6 µM (active)
